Data: patent US20130324522A1, “INSECT ODORANT RECEPTOR ANTAGONISTS” (THE ROCKEFELLER UNIVERSITY, priority 2010, published 2013)
Where two headings read alike, the source gives them in different places.

Assays:
Type in all cases: cell-based
OR10/OR7 = OR10/OR7 (Anopheles gambiae, UniProt B5U0U7+Q7QCC7); assay: Ca2+-imaging of stable HEK293T cell line OR10/OR7; details: for inhibition at 4 µM: HEK-293T, compound applied at 4 μM, read-out: Percent Inhibition OR10 OR7; for IC50: Table B, read-out: IC50 OR10
Sequence of OR10/OR7 (Q7QCC7 whole entry): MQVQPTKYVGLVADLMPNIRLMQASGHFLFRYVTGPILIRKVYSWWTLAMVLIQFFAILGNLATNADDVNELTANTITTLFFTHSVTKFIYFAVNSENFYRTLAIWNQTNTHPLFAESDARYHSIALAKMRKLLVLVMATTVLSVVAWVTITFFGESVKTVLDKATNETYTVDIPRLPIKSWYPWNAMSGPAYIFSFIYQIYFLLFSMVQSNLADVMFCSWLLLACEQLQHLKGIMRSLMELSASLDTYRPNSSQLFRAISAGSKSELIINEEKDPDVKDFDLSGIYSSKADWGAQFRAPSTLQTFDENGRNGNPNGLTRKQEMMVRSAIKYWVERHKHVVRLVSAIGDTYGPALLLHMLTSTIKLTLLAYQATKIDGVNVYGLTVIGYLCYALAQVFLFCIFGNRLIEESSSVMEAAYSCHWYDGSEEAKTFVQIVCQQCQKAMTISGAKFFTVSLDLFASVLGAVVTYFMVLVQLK
Sequence of OR10/OR7 (B5U0U7 entry or part of it): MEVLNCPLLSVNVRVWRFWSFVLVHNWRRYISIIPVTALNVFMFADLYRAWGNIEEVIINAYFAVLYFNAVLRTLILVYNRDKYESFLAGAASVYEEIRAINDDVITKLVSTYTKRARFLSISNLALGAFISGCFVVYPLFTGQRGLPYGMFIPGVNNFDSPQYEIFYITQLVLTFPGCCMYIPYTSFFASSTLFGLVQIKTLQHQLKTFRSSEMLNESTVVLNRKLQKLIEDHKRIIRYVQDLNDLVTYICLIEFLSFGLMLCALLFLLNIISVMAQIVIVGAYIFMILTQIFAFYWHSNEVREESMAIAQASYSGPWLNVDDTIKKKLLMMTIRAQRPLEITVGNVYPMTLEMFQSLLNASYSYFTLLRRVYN
Procedure, shortened: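 Stable HEK293T line co-expressing OR10/OR7, plated 2 days on poly-D-lysine, loaded with Ca-4 dye 1.5 hr at room temperature. Compounds premixed into odorant in HBSS and applied on FDSS6000. Ca2+ rise followed by fluorescence at 525 nm (excitation 485 nm).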

OR28/OR7 = OR28/OR7 (Anopheles gambiae, UniProt A0A1S4GFY3+Q7QCC7); assay: Ca2+-imaging of stable HEK293T cell line OR28/OR7; details: for inhibition at 4 µM: HEK-293T, read-out: Percent Inhibition OR28 OR7
Sequence of OR28/OR7 (A0A1S4GFY3 entry or part of it): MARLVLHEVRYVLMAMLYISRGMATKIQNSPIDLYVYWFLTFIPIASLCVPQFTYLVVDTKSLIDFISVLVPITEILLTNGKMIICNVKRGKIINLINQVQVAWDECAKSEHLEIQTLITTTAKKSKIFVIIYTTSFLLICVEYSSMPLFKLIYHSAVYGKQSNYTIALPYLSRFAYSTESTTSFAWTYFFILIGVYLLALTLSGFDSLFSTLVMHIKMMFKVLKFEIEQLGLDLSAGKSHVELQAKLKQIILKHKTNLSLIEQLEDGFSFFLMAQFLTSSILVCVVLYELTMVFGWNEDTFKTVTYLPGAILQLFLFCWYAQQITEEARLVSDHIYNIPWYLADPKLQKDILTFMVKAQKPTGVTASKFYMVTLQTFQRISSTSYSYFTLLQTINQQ
Sequence of OR28/OR7 (Q7QCC7 whole entry): as the sequence (Q7QCC7 whole entry) above
Procedure, shortened: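 Cells were HEK293T stably expressing mouse TRPM8 or a ligand-specific Anopheles OR plus OR7. Compounds were delivered in HBSS odorant solution.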

OR8/OR7 = OR8/OR7 (Anopheles gambiae, UniProt Q7PUT5+Q7QCC7); assay: Ca2+-imaging of stable HEK293T cell line OR8/OR7; details: for inhibition at 4 µM: HEK-293T, compound applied at 4 μM, read-out: Percent Inhibition OR8 OR7; for IC50: Table B, read-out: IC50 OR8
Sequence of OR8/OR7 (Q7QCC7 whole entry): as above
Sequence of OR8/OR7 (Q7PUT5 entry or part of it): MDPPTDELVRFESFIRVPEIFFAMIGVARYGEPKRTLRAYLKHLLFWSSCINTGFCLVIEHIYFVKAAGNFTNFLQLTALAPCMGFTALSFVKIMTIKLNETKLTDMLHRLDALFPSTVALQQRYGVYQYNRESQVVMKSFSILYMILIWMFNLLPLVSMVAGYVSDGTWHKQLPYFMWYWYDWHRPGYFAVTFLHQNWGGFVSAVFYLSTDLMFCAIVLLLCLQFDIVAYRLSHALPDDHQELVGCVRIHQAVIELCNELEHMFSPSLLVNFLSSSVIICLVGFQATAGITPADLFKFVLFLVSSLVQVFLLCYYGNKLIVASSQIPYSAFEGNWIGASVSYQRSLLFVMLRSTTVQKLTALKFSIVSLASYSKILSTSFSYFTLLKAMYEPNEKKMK
Method: Full-length cDNAs for mosquito (Anopheles gambiae) odorant receptor (OR1, OR2, OR7, OR8, OR28), and fly (Drosophila melanogaster) odorant receptor (Or47a, Or83b), mouse TRP channel (TRPM8), and mouse serotonin receptor (5HT3) were obtained and subcloned into mammalian expression vectors. The following mammalian expression vectors were used:
Stable cell lines OR1/OR7, OR2/OR7, OR8/OR7, OR10/OR7, OR28/OR7 and TRPM8 were generated from HEK293T cells. HEK293T-based cell lines were cultured in DMEM supplemented with these additional antibiotics: 6 μg/mL blasticidin and 1 μg/mL puromycin, with the exception of the TRPM8 cell lines, which was cultured in DMEM supplemented with 1 μg/mL puromycin.
Cells were trypsinized and split into 35 mm dishes one day before transfection. Confluent cells (60-70%) in 35 mm dishes were transfected with 1 μg of insect OR(X) plasmids in pME18s-bla and 1 μg of OR7-pME18s-puro using lipofectamine 2000. For Anopheles odorant receptors, two plasmids were co-transfected into HEK cells: the ligand-specific receptor (OR1, OR2, OR8, OR28) and the corresponding olfactory co-receptor: OR7. Cell lines containing TRPM8 were transfected with single plasmid.
Stable cell lines were cultured in 10 cm dishes, and confluent cells (70-80%) were trypsinized. 10,000 cells/20 μL were transferred into each well of 384-well plates coated with poly-D-lysine, and cultured for 2 days. For Flip-In T-Rex cells (cell lines expressing Or47a/Or83b and 5HT3), 5 μL of tetracycline (5 μg/mL) were added 1 day before the assay. 20 μL of Ca-4 dye was loaded into each well for 1.5 hr at room temperature in the dark, and the dye-loaded plates were subjected to Ca^2+-imaging using a Hamamatsu FDSS6000 real time fluorescence plate reader. Odorant solutions (9× final concentration) were prepared by dissolving 1M stock solutions into Hank's Buffered Salt Solution (HBSS), and 30 μL of odor solution was transferred to each well in 384-well plates.
Compounds ([…] in DMSO) were stored in 384-well plates, and last two columns (32 wells total) contained only DMSO. 200 nL of small compounds were transferred into the odorant plates before the assay using the Perkin-Elmer Janus workstation. The odorant plates were spun down to remove air bubbles, and placed on the FDSS6000 plate loader, and 5 μL of odorant solution was applied to the cell plate on the FDSS6000. Ca^2+ increase was monitored with fluorescence at 525 nm by excitation at 485 nm.

Structure (SMILES)	inhibition at 4 µM (OR10/OR7) [%]	IC50 (OR10/OR7) [nM]	inhibition at 4 µM (OR28/OR7; compound applied at 4 μM) [%]	IC50 (OR28/OR7; Table B, read-out: IC50 OR28) [nM]	inhibition at 4 µM (OR8/OR7) [%]	IC50 (OR8/OR7) [nM]	IC50 (OR28/OR7) [nM]	inhibition at 4 µM (OR28/OR7) [%]
CCN(CC)C(=O)Oc1ccc2c(ccn2Cc2cccc(C)c2)c1NC(=O)[C@H](C)OC(C)=O [RU-0075468]	26 to 50	< 100	> 75	< 100	< 25			
CN(C)c1nc(N(C)C)nc(N(C)C)n1 [RU-0000619]	< 25		51 to 74	< 100	26 to 50			
COc1ccc(N2CCN(C(=O)C3CC=CCC3C(=O)NCCCCc3ccccc3)CC2)cc1 (stereo not shown) [RU-0026167]	26 to 50		51 to 74	< 100	26 to 50			
CC(NC(=O)c1cc2n(n1)CCN(Cc1c(Cl)cccc1Cl)C2=O)c1ccccc1 (stereo not shown) [RU-0045115]	< 25		> 75	< 100	< 25			
COc1ccccc1N1CCN(C(=O)c2cc3n(n2)CCN(Cc2c(F)cccc2Cl)C3=O)CC1 [RU-0043595]	< 25		> 75	< 100	26 to 50			
O=C1CN(S(=O)(=O)c2c(F)cc(F)cc2F)CC2c3cccc(F)c3CCN12 (stereo not shown) [RU-0076832]	26 to 50		> 75	< 100	< 25			
COc1nc(OCC#N)nc(N2CCCCC2)n1 [RU-0006256]	51 to 74	> 1000	> 75	< 100	51 to 74	> 1000		
COCCN(Cc1cc(Cl)ccc1OS(=O)(=O)c1ccc(F)cc1)C(=O)C1CCC1 [RU-0035287]	< 25		> 75	< 100	26 to 50			
COCCNC(=O)c1ccc(CSc2nnc(-c3ccc(C)cc3)n2-c2ccccc2F)cc1 [RU-0051652]	26 to 50		51 to 74	> 1000	< 25			
COc1nc(NC(C)C)nc(NC(C)C)n1 [RU-0001534]	< 25				26 to 50		< 100	> 75
CCOC(=O)C(c1cccc(OC)c1)C1C=CC(NC(=O)c2cccs2)C1 (stereo not shown) [RU-0074560]	< 25		51 to 74	> 1000	< 25			
COCCCN(CC(=O)N1CCc2sccc2C1COc1cccc(OC)c1)C(=O)c1ccccc1OC (stereo not shown) [RU-0036294]	51 to 74	> 1000	> 75	100 to 1000	51 to 74	> 1000		
COc1ccc(C(=O)c2ccccc2)c(O)c1O [RU-0001617]	51 to 74	< 100	51 to 74	> 1000	< 25			
Cc1ccc(CN(Cc2ccc(F)cc2)C(=O)CN(C(=O)NC(C)(C)C)C2CC2)s1 [RU-0052360]	> 75	> 1000	> 75	100 to 1000	51 to 74	> 1000		
COc1ccc(N2CCN(C(=O)C3CC=CCC3C(=O)NC(c3ccccc3)c3ccccn3)CC2)cc1 (stereo not shown) [RU-0026507]	< 25		> 75	> 1000	< 25			
CCOCCCN(CC(=O)N(Cc1ccc2c(c1)OCO2)Cc1sccc1C)C(=O)NC(C)(C)C [RU-0052340]	51 to 74	< 100	> 75	< 100	< 25			
Cc1cc(C)c2c(c1C(=O)N1CCC3(CC1)C(=O)NCN3c1ccccc1)CC(C)(C)C2=O [RU-0025771]	26 to 50		> 75					
CN(Cc1ccccc1)C(=O)CCC1CCN(C(=O)CCOc2ccccc2)CC1 [RU-0028727]	51 to 74	> 1000	> 75	< 100				
Cc1ccc(-n2nc(C)c(CCC(=O)N3CCc4ccccc4C3)c2C)cc1Cl [RU-0026074]	26 to 50		> 75					
CCOc1ccccc1C(=O)NNC(=O)COc1cc(C)cc(C)c1 [RU-0023245]	26 to 50	> 1000	> 75	> 1000				
Cc1ccc(CN(CCc2ccccc2)C(=O)CN(C(=O)NC(C)(C)C)C(C)C)o1 [RU-0072008]	> 75	< 100	> 75	< 100	< 25			
COCCCN(CC(=O)N1CCc2sccc2C1c1ccc(OC)cc1)C(=O)C(C)(C)CCl (stereo not shown) [RU-0069950]	> 75	< 100	> 75	< 100	26 to 50			
CCCCc1nc(CN2CCc3c([nH]c4ccccc34)C2c2cccc(OC)c2OC)c[nH]1 (stereo not shown) [RU-0031879]	< 25		> 75	< 100	26 to 50			
CC(NCc1ccccc1)c1nc2ccccc2c(=O)n1-c1ccc(Cl)cc1 (stereo not shown) [RU-0072535]	< 25		> 75	< 100	< 25			
COC(=O)C(Cc1ccccc1)NC(=O)C1CC1(c1ccccc1)c1ccccc1 (stereo not shown) [RU-0028029]	26 to 50		51 to 74	< 100	51 to 74	> 1000		
COc1cc(OC)cc(C2NC(=O)N(C)C3=C2C(=O)N(C2CCCCC2)C3)c1 (stereo not shown) [RU-0047750]	> 75	< 100	> 75	> 1000	< 25			
COc1ccc(-c2nnc(SCc3ccc(C#N)cc3)n2-c2ccc(C)cc2)cc1 [RU-0046426]	26 to 50		> 75	> 1000	26 to 50			
C=C[C@@](C)(O)CCC1C(=C)CCC2[C@@](C)(CO)CCC[C@]12C (stereo partly shown) [RU-0001327]	51 to 74	> 1000	> 75	> 1000	26 to 50			
CCOC(=O)C(c1ccc(OC)c(OC)c1)C1C=CC(NC(=O)c2ccc3c(c2)OCO3)C1 (stereo not shown) [RU-0049030]	26 to 50		> 75	< 100	26 to 50			
COCCCN(CC(=O)N1CCc2sccc2C1COc1cccc(OC)c1)C(=O)Cc1ccccc1 (stereo not shown) [RU-0036264]	< 25		51 to 74	100 to 1000	26 to 50			
